Measured values: patent US11266670B2, “Use of scutellarin in a medicament and a modulator for preventing or treating diseases, medicament, and modulator” (University of Macau, priority 2019, dated 2022)
Starred links: 1 amine or outer side, 2 acyl side, 3 side chain; linkers in the order of their positions; H or OH if unused. Positions of bridges follow the written chain, without caps; N, C: chain ends. Non-standard residues stand in square brackets, D forms with d. Residues, ends and D or L forms follow the SMILES beside them. Chains are numbered I, II in the order given. Actinocin(9to1) = Cc1c2oc3c(C)ccc(C(=O)[*:1])c3nc-2c(C(=O)[*:2])c(N)c1=O; NMeV = CN[C@H](C(=O)O)C(C)C; Sar = CNCC(=O)O

Columns and labels:
WEHI-13VAR cells = assay: TNF bioassay: TNF-induced death of WEHI-13VAR cells in the presence of AcD (MTT); format: cell-based
Method: WEHI-13VAR is a fibrosarcoma cell line that is extremely sensitive to TNF-induced cell death in the presence of AcD (0.5 μg/ml) and is commonly used in TNF bioassays. In TNF bioassays, the presence of AcD is a standard approach designed to increase the sensitivity of cells to TNF. TNF acts by binding to its two functionally distinct receptors, TNFR1 and TNFR2. To identify which TNF receptor was expressed on WEHI-13VAR cells, we measured the expression of TNFR1 and TNFR2 on WEHI-13VAR by FACS. […] In the case of labeling with PE anti-mouse TNFR2 antibody, the expression of TNFR2 was higher than in the case of labeling with the isotype control by 50%. […] Furthermore, in order to investigate which TNF receptor is responsible for TNF-induced cell death, we stimulated the cells with TNF, and co-cultured the cells with anti-TNFR1 antibody or anti-TNFR2 antibody for 24 hours. Cell viability was measured by MTT. […]
CHIs are injections developed in China and approved by the China Food and Drug Administration. […] We screened eleven CHIs and assessed their effects on WEHI-13VAR cells by TNF bioassay. […]
WEHI-13VAR cells were seeded in 96-well plates at 1.5×10^4 cells/well. […] Absorbance values were read at 570 nm using a 1420 Multilabel counter victor (PerkinElmer, Waltham, Mass., USA). Cell viability was expressed as the ratio of absorbance values between the sample and the blank control group.

Tregs = assay: TNF-induced up-regulation of Tregs and Foxp3/TNFR2 expression in cultured lymphocytes (FACS); format: cell-based; settings: in vitro
Method: FIG. 5. […] Lymphocytes were cultured in the presence of IL-2 (10 ng/mL) or IL-2+TNF (10 ng/mL each), with medium alone or with scutellarin (25-50 μM) for 72 hours. (A) Typical FACS analysis of Tregs is shown. The data as shown are representative of at least three separate experiments with similar results. The numbers in the FACS plots show the proportion of cells in the respective quadrants. (B) Summary of the proportion of CD4^+Foxp3^+ cells in CD4^+ cells. (C) Summary of MFI of Foxp3 expression on Tregs. (D) Typical FACS plots of the proportion of TNFR2^+ cells in Tregs. (E) Summary of the proportion of TNFR2^+ cells in CD4^+Foxp3^+Tregs. (F) Summary of MFI of TNFR2 expression on Tregs (by gating on Foxp3^+ cells) (N=3, mean±SEM). ** p<0.01, *** p<0.001, compared to the “TNF+IL-2” group. The data as shown are representative of at least three separate experiments with similar results.
We then explored the effect of scutellarin on the TNF-induced proliferation of Tregs in an in vitro experiment. […]
Lymphocytes were obtained from spleens, axillary lymph nodes, inguinal lymph nodes and mesenteric lymph nodes of mice. […] The proliferation of Tregs was assessed by CFSE dilution assay, and the proportion of Foxp3^+ cells in the CD4^+ subset and the proportion of TNFR2 expressed on Tregs were analyzed by FACS. […] The expression of Foxp3 and TNFR2 was analyzed by FACS. […]

| Compound | death of WEHI-13VAR cells induced by AcD (WEHI-13VAR cells; AcD 0.5 μg/ml alone) | 50% lethal dose of scutellarin (Tregs) | cytotoxicity against WEHI-13VAR cells (WEHI-13VAR cells; scutellarin 12.5-200 μM) |
| --- | --- | --- | --- |
| Cc1c2oc3c(C)ccc(C(=O)N[C@@H]4C(=O)N[C@H](C(C)C)C(=O)N5CCC[C@H]5C(=O)N(C)CC(=O)N(C)[C@@H](C(C)C)C(=O)O[C@@H]4C)c3nc-2c(C(=O)N[C@@H]2C(=O)N[C@H](C(C)C)C(=O)N3CCC[C@H]3C(=O)N(C)CC(=O)N(C)[C@@H](C(C)C)C(=O)O[C@@H]2C)c(N)c1=O [AcD, actinomycin D, reference compound] (I: T[dV]P[Sar][NMeV] / II: T[dV]P[Sar][NMeV]; ester I:1-I:C, II:1-II:C; linker I:N-II:N via Actinocin(9to1)) | approximately 30% | – | – |
| O=C(O)[C@H]1O[C@@H](Oc2cc3oc(-c4ccc(O)cc4)cc(=O)c3c(O)c2O)[C@H](O)[C@@H](O)[C@@H]1O [scutellarin] | – | higher than 100 μM | no significant cytotoxicity against WEHI-13VAR cells |
